Patent publication US8147872B2, “Pharmaceutical compositions of drugs and neutralized acidic polymers” (Bend Reseach, Inc., priority 2001, dated 2012)
Blank lines part the entries; values can stand above or below the molecule they belong to.

Key:
[1] = In vitro dissolution test of Drug 2 compositions in PBS pH 6.5 (microcentrifuge method, HPLC); format: physicochemical; parameters: AUC90: tested at 2000 µg/mL
Description: (§1) For this test, 14.4 mg of the dispersion was added to a microcentrifuge tube for a total Drug 2 concentration of approximately 2000 μg/mL if all of the drug were to dissolve completely. The tube was placed in a 37° C. temperature-controlled chamber, and 1.8 mL PBS as pH 6.5 and 290 mOsm/kg was added. The samples were quickly mixed using a vortex mixer for about 60 seconds. The samples were centrifuged at 13,000 G at 37° C. for 1 minute. The resulting supernatant solution was then sampled and diluted 1:6 (by volume) with methanol and then analyzed by high-performance liquid chromatography (HPLC). The contents of the tubes were mixed on the vortex mixer and allowed to stand undisturbed at 37° C. until the next sample was taken. Samples were collected at 4, 10, 20, 40, 90, and 1200 minutes.
For comparison, a Control C4 consisting of 3.6 mg of crystalline Drug 2 was added to PBS for a total concentration of 2000 μg/mL.
For this test, 14.4 mg of the dispersion was added to a microcentrifuge tube for a total Drug 2 concentration of approximately 2000 μg/mL if all of the drug were to dissolve completely. The dissolution test was performed as described in Example 9. Control C4 (consisting of 3.6 mg of crystalline Drug 2) is shown again for comparison.

[2] = In vitro dissolution test of Drug 3 compositions in PBS with 0.5 wt % NaTC/POPC; format: physicochemical; conditions: for Drug 3 Concentration: approx. 200 μg/mL if all dissolved
Description: as §1
For these tests, 1.44 mg of each dispersion was added to a microcentrifuge tube containing PBS with 0.5 wt % sodium taurocholic acid and 1-palmitoyl-2-oleyl-sn-glycero-3-phosphocholine (“NaTC/POPC,” with a 4/1 weight ratio), for a total Drug 3 concentration of approximately 200 μg/mL if all of the drug were to dissolve completely. For Controls C5, C6, and C7 (with Drug 3B), 1.57 mg of each dispersion was added to PBS containing 0.5 wt % NaTC/POPC to yield approximately 200 μg/mL of active Drug 3. Control C8 consisted of 0.36 mg of crystalline Drug 3A. The dissolution tests were performed as described in Example 9.

AUC90 ([1]; Drug 2, PBS pH 6.5, 37° C.): 10,300 min * μg/mL | Cmax90 ([1]; Drug 2, PBS pH 6.5, 37° C.): 131 µg/mL | AUC ([1]; Table 4, time 0 min, PBS pH 6.5, 37° C.): 0 µg·h/mL | AUC ([1]; Table 4, time 4 min, PBS pH 6.5, 37° C.): 5 µg·h/mL | AUC ([1]; Table 4, time 10 min, PBS pH 6.5, 37° C.): 16.7 µg·h/mL | AUC ([1]; Table 4, time 20 min, PBS pH 6.5, 37° C.): 36.7 µg·h/mL | AUC ([1]; Table 4, time 40 min, PBS pH 6.5, 37° C.): 75 µg·h/mL | AUC ([1]; Table 4, time 90 min, PBS pH 6.5, 37° C.): 172 µg·h/mL | AUC ([1]; Table 4, time 1200 min, PBS pH 6.5, 37° C.): 2000 µg·h/mL | AUC ([1]; Table 5, AUC90 according to the text, PBS pH 6.5): 172 µg·h/mL | Drug 2 Concentration ([1]; Table 5, Cmax90 according to the text, PBS pH 6.5): 131 µg/mL | AUC ([1]; time 0 min, PBS pH 6.5, 37° C.): 0 µg·h/mL | Drug 2 Concentration ([1]; time 0 min, PBS pH 6.5, 37° C., approx. 2000 μg/mL if all dissolved): 0 µg/mL | AUC ([1]; time 4 min, PBS pH 6.5, 37° C.): 5 µg·h/mL | Drug 2 Concentration ([1]; time 4 min, PBS pH 6.5, 37° C., approx. 2000 μg/mL if all dissolved): 131 µg/mL | AUC ([1]; time 10 min, PBS pH 6.5, 37° C.): 1,000 min * μg/mL | Drug 2 Concentration ([1]; time 10 min, PBS pH 6.5, 37° C., approx. 2000 μg/mL if all dissolved): 114 µg/mL | AUC ([1]; time 20 min, PBS pH 6.5, 37° C.): 2,200 min * μg/mL | Drug 2 Concentration ([1]; time 20 min, PBS pH 6.5, 37° C., approx. 2000 μg/mL if all dissolved): 124 µg/mL | AUC ([1]; time 40 min, PBS pH 6.5, 37° C.): 4,500 min * μg/mL | Drug 2 Concentration ([1]; time 40 min, PBS pH 6.5, 37° C., approx. 2000 μg/mL if all dissolved): 107 µg/mL | AUC ([1]; time 90 min, PBS pH 6.5, 37° C.): 10,300 min * μg/mL | Drug 2 Concentration ([1]; time 90 min, PBS pH 6.5, 37° C., approx. 2000 μg/mL if all dissolved): 126 µg/mL | AUC ([1]; time 1200 min, PBS pH 6.5, 37° C.): 120,200 min * μg/mL | Drug 2 Concentration ([1]; time 1200 min, PBS pH 6.5, 37° C., approx. 2000 μg/mL if all dissolved): 72 µg/mL
Compound: O=C(N[C@@H](Cc1ccccc1)[C@@H](O)C(=O)N1C[C@@H](O)[C@@H](O)C1)c1cc2cc(Cl)ccc2[nH]1 [Example C4, 5-chloro-1H-indole-2-carboxylic acid[(1S)-benzyl-3-((3R,4S)-dihydroxypyrrolidin-1-yl)-(2R)-hydroxy-3-oxypropyl]amide]

Cmax90 ([2]; Drug 3): 2 µg/mL | AUC ([2]; Drug 3, time 0 min): 0 µg·min/mL | AUC ([2]; Drug 3, time 4 min): 0 µg·min/mL | AUC ([2]; Drug 3, time 10 min): 0 µg·min/mL | AUC ([2]; Drug 3, time 20 min): 0 µg·min/mL | AUC ([2]; Drug 3, time 40 min): 0 µg·min/mL | AUC ([2]; Drug 3, time 90 min): 100 µg·min/mL | AUC ([2]; Drug 3, time 1200 min): 1,800 min * μg/mL | AUC ([2]; Table 9, AUC90 according to the text, Drug 3): 100 µg·min/mL | Drug 3 Concentration ([2]; time 0 min): 0 µg/mL | Drug 3 Concentration ([2]; time 4 min): 1 µg/mL | Drug 3 Concentration ([2]; time 10 min): 1 µg/mL | Drug 3 Concentration ([2]; time 20 min): 1 µg/mL | Drug 3 Concentration ([2]; time 40 min): 2 µg/mL | Drug 3 Concentration ([2]; time 90 min): 1 µg/mL | Drug 3 Concentration ([2]; time 1200 min): 2 µg/mL
Compound: O=C1Cc2cc(CCN3CCN(c4nsc5ccccc45)CC3)c(Cl)cc2N1 [Example C8, ziprazidone]
